Patent US12324845B2, “Ligands for imaging cardiac innervation” (Lantheus Medical Imaging, Inc., priority 2006, dated 2025)
Counter-ions that a name gives are not always drawn.

Target: T1, human norepinephrine transporter (Homo sapiens, UniProt P23975)
T1 construct: purchased Perkin-Elmer; host or cells: MDCK cells (membrane preparation)
Experiment: Norepinephrine Transporter Binding Assay ([3H]desipramine displacement, MDCK cell membranes)
Conditions: MDCK cell membrane preparation expressing human NET; [3H]desipramine 2 nM; 2 h on ice; triplicate
Method: Unless otherwise stated, all reactions were conducted under an inert atmosphere of dry nitrogen. Indicated temperatures refer to those of the reaction bath, while ambient laboratory temperature is noted as 22° C. Anhydrous dimethylformamide (DMF), dimethylsulfoxide (DMSO), acetonitrile (MCCN), pyridine, triethylamine (TEA), and diisopropylethylamine (DIEA) were obtained from Aldrich in SureSeal® bottles. Absolute ethanol was obtained from Quantum Chemical Corp. Merck silica gel, grade 9385, 230-400 mesh, 60 Å was used for flash chromatography. Ethyl acetate (EtOAc), chloroform (CHCl3), methanol (MeOH), HPLC grade acetonitrile (MeCN), dichloromethane (DCM), ethyl ether, acetone, sodium hydroxide (NaOH), and hydrochloric acid (HCl) were obtained from Baker. 1-Trityl-1H-imidazole-2-amine was prepared according to a published procedure (U.S. Pat. No. 6,130,231, incorporated by reference in its entirety). 1-Bromo-2-fluoroethane was purchased from Alfa Aesar. 3-Methoxy-4-fluorobenzonitrile was purchased from TCI. MDCK cell membranes expressing human norepinephrine transporter, and [^3H]desipramine were purchased from Perkin-Elmer. [^18F]NaF was obtained from PETNET Pharmaceutical Services (Cummings Park, Woburn, MA) on a MP1 anion exchange resin (BioRad) cartridge. Other reagents were obtained from Lancaster Synthesis, Inc., Sigma-Aldrich Chemical Co, or Fluka Chemical Corp.
Inhibitors to be tested were dissolved in incubation buffer (50 mM Tris-HCl, 10% sucrose, pH 7.4) at appropriate dilutions. The inhibitor solutions were added to the wells of a microtiter plate (40 μL/well) in triplicate. Each well of test agent (and appropriate control wells) was treated with a mixture of MDCK cell membrane preparation (22.4 μg of membrane) expressing human norepinephrine transporter (Bmax=3.7 pmol norepinephrine transporter/mg protein), and [^3H]desipramine (2 nM, 64.8 Ci/mmol) in a total volume of 0.2 mL. The resulting mixtures were incubated for 2 h on ice. A 96 well GF/C filter plate was presoaked with coating buffer (0.5% polyvinylpyrrolidine and 0.1% Tween 20) for 2 h at room temperature. The presoaked filter plate was washed with incubation buffer (6×0.2 mL). The NET reactions were transferred to the coated filter plate and filtered. The filter plate was washed (6×0.2 mL) with ice cold wash buffer (50 mM Tris-HCl, 0.9% NaCl, pH 7.4). The plate was dried overnight, incubated briefly with 25 μL scintillant, and read on a Micro Beta plate reader.

T1 sequence (P23975 whole entry): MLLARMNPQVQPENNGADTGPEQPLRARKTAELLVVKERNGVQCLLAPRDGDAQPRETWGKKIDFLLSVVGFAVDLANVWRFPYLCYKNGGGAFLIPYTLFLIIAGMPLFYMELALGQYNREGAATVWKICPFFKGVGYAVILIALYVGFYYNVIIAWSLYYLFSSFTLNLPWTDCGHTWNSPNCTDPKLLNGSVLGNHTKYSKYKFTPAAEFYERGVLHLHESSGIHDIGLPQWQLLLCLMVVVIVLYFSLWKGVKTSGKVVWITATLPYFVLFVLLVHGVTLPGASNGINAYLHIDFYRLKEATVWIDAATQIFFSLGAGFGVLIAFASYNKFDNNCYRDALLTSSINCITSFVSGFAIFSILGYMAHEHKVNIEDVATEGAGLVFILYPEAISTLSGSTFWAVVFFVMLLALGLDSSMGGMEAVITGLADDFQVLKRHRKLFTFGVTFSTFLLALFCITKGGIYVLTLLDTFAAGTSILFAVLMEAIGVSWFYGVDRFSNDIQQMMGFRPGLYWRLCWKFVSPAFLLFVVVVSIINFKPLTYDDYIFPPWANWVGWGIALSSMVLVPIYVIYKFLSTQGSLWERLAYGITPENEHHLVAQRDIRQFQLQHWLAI

| Compound | NET Affinity |
| --- | --- |
| Fc1ccc(CNc2ncc[nH]2)cc1C(F)(F)F [Example 1, N-(4-Fluoro-3-(trifluoromethyl)benzyl)-1H-imidazol-2-amine] | 17.94 µM |
| Cl.N=C(N)NCC(O)c1ccc(OCCF)cc1 (centres unmarked) [Example 2, 1-(2-(4-(2-fluoroethoxy)phenyl)-2-hydroxyethyl)guanidinium Chloride] | <20 µM |
| Cl.N=C(N)NCCc1ccc(OCCF)cc1 [Example 3, 1-(4-(2-Fluoroethoxy)phenethyl)guanidinium Chloride] | 1.45 µM |
| Cl.N=C1NCC(c2ccc(OCCF)cc2)N1 (centres unmarked) [Example 4, 4-(4-(2-Fluoroethoxy)phenyl)imidazolidin-2-iminium Chloride] | 7.27 µM |
| Cl.N=C(N)N/C=C/c1ccc(OCCF)cc1 [Example 5, (E)-1-(4-(2-Fluoroethoxy)styryl)guanidinium Chloride] | 4.10 µM |
| CC(N)C(O)c1cc(O)c(OCCF)c(O)c1.Cl (centres unmarked) [Example 6, 5-(2-Amino-1-hydroxypropyl)-2-(2-fluoroethoxy)benzene-1,3-diol Hydrochloride] | 102.8 µM |
| COc1cc(CNC(=N)N)ccc1F.Cl [Example 7, 3-Methoxy-4-fluorobenzylguanidinium Chloride] | 20.71 µM |
| Cl.N=C(N)NCc1ccc(OCCF)c(Br)c1 [Example 8, 3-Bromo-4-(2-fluoroethoxy)benzylguanidinium Chloride] | 5.65 µM |
| N=C(N)NCc1cccc(OCCF)c1 [Example 9, 3-(2-Fluoroethoxy)benzylguanidinium Trifluoroacetate] | 4.36 µM |
| N=C(N)NCCc1ccc(OCCF)c(Cl)c1 [Example 10, 3-Chloro-4-(2-fluoroethoxy)phenethylguanidinium Trifluoroacetate] | 1.80 µM |
| CNC(C)C(O)c1ccc(F)c(O)c1 (centres unmarked) [Example 11, 1-(4-Fluoro-3-hydroxyphenyl)-1-hydroxy-N-methylpropan-2-aminium Trifluoroacetate] | 54.85 µM |
